Experimental data: patent US6235516A, “Biocatalysts with amine acylase activity” (Novartis AG, priority 1996, dated 2001)
Several values for one entry are separate records, joined by “and”; a condition that tells them apart may be missing. Identical values can stand only once. Like-named read-outs stand apart in the source and are kept apart here.

Assays:
[1] = biological target: Ac6-acylase (Rhodococcus (subgen. Prescottella) equi, UniProt A0A3S5Y3Z2); experiment: Activity of the Ac6-acylase in the presence of potential enzyme activators and inhibitors; assay type: biochemical; conditions: for activity at 10000 µM: read-out: Relative activity (%)
Ac6-acylase, sequence (A0A3S5Y3Z2 entry or part of it): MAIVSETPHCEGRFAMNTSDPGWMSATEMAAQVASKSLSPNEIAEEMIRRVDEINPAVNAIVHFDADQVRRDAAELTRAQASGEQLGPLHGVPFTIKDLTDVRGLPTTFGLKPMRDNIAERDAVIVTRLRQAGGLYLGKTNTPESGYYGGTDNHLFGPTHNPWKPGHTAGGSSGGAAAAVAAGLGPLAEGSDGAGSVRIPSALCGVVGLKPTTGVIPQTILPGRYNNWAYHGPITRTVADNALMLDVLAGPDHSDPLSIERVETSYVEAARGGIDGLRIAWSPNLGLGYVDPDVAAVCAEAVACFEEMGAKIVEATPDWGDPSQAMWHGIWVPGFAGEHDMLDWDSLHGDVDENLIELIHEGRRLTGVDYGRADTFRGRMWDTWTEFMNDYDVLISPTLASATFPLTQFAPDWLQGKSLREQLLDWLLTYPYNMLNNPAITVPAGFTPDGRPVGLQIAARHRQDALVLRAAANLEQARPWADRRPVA
Experimental: After an incubation at 30° C. for a time period allowing the liberation of 0 to 3 mM of 1-phenylethylamine 400 μl of ice cooled acetone are added to stop the reaction. The tube is mixed vigorously, put on ice for about 15 min., and then is centrifuged for 4 min at 11500 rpm in a Biofuge 15 (Heraeus Sepatech, Osterode Germany). The supernatant is subjected to quantitative HPLC analysis. If activity assays contain crude extracts of cells grown in the presence of N-acetyl-1-phenylethylamine a control assay without substrate has to be prepared in parallel in order to determine the 1-phenylethylamine content of the crude extract. For HPLC analysis sample volumes of 20 μl are injected onto a RP-8 column (LiChroCART 125-4, LiChrospher 100 RP-8 ([…]), guard column: LiChroCART 4-4, LiChrospher 100 RP-8 ([…]), Merck Co., Darmstadt Germany). The following gradient with a flow rate of 1.25 ml/min. is applied for the separation of the substrate N-acetyl-1-phenylethylamine and the product 1-phenylethylamine:
One unit (U) of acylase activity is defined as the amount of enzyme catalyzing the liberation of 1 μmol of 1-phenylethylamine per minute. The acylase concentration in the samples is calculated according to the following formula: […]
In the presence of various potential enzyme activators and inhibitors activity assays are performed according to the scheme given in example 1 by applying the following conditions and final concentrations:
(S)-N-acetyl-1-phenylethylamine 20 mM
Purified acylase from example 4 c 0.02 U/ml
Incubation time 120 min.

[2] = tested on: AcR5b-acylase; experiment: Activity of the AcR5b-acylase in the presence of potential enzyme activators and inhibitors; assay type: biochemical, Arthrobacter aurescens AcR5b; conditions: for Relative activity (%), EDTA reactivation: preincubated with 1 mM metal cation, then 10 mM EDTA for 30 min
Experimental: 40 μl of the concentrated enzyme solution from example 4d) are mixed with 360 μl of 1 and 10 mM solutions of the potential activators/inhibitors in 100 mM Tris-HCl buffer, pH 8, and incubated at room temperature for 30 min. These preincubated acylase solutions are used as the enzyme source for activity assays in the presence of the activator/inhibitor (see example 8) in the concentration used for the preincubation. The incubation time is 12 min. For the EDTA reactivation the acylase is first preincubated with the metal cation at 1 mM concentration (see above). After adding EDTA to a final concentration of 10 mM in form of a 110 mM solution in 100 mM Tris-HCl, pH 8, the acylase is preincubated a second time for 30 min., before the standard activity assay is performed.

[3] = tested on: Rhodococcus globerulus K1/1 acylase; assay type: biochemical
Experimental: The standard assay for K1/1-acylase activity used for monitoring the purification and for the enzymological characterization is performed by mixing 20 μl of an enzyme sample with 380 μl of a 5.55 mM solution of (S)-2-acetylamino-1-phenyl-4-pentene in 69 mM potassium phosphate buffer, pH 7, and incubating at 23° C. The dilution of the acylase and the incubation time are chosen so that not more than 1.3 mM of product are formed. The reaction is stopped by addition of 800 μl ice cold methanol. After centrifugation for 4 min at 11500 rpm in a Biofuge 15 (Heraeus Sepatech, Osterode, Germany) the supernatant is subjected to quantitative HPLC analysis (see example 1).
27.1. Activity of the Rhodococcus globerulus K1/1 acylase in the presence of potential enzyme activators and inhibitors: […]

[4] = biological target: T1, acylase from Rhodococcus equi Ac6 (Rhodococcus (subgen. Prescottella) equi, UniProt A0A3S5Y3Z2); experiment: Enzymatic hydrolysis of racemic amides with partially purified acylase from Rhodococcus equi Ac6; assay type: biochemical; set-up: e.e. (R)-Amide: unit not given here; conditions: for Selectivity E: enantioselectivity of the hydrolysis; for e.e. (S)-Amine: formed amine, analysed as acetamide; for e.e. (R)-Amide: unconverted amide, chiral HPLC
T1 construct: N-terminus […]
T1 sequence (A0A3S5Y3Z2 1-487): as the sequence (A0A3S5Y3Z2 entry or part of it) above
Experimental: (§1) To 10 ml of a 20 mM solution of each of the racemic amides shown below 1 in 0.1 M phosphate buffer pH 7.0, 5 ml (1.3 units) of the enzyme is added and the solutions are shaken at 100 rpm and 30° C. [drawing 10] [drawing 11]
(§2) When the conversion reaches about 50% (checked by HPLC) the solutions are acidified to pH 2 by adding 1 N HCl and extracted three times with dichloromethane to obtain the unconverted amides. The aqueous layers are neutralized with 1 N NaOH solution and extracted again three times with dichloromethane to recover the formed amines. Both organic phases are dried with MgSO4, filtered and the solvent is distilled off. The amides are used directly for optical purity determinations (HPLC), whereas the obtained amines are converted to the acetamides by adding 100 μl triethylamine and 100 μl acetic anhydride to each sample and then analyzed for the optical purity by "chiral" HPLC.
The experiments are carried out in the same manner as described in example 22.

[5] = tested on: acylase from Arthrobacter aurescens Ac5R; experiment: Enzymatic hydrolysis of racemic amides with highly purified acylase from Arthrobacter aurescens Ac5R; assay type: biochemical; conditions: for Selectivity E: enantioselectivity of the hydrolysis; for e.e. (R)-Amine: formed amine, analysed as acetamide by chiral HPLC; for e.e. (S)-Amide: unconverted amide, chiral HPLC
Experimental: as §1, §2

[6] = compound 1 mM, 20 mM (S)-N-acetyl-1-phenylethylamine, Tris-HCl pH 8, 120 min, none = 100
[7] = compound 10 mM, values in brackets: precipitates formed during the assay, none = 100
[8] = compound 1 mM, 30 min preincubation, Tris-HCl pH 8, none = 100
[9] = compound 10 mM, 30 min preincubation, values printed in brackets: precipitates formed, none = 100

SMILES | Relative activity (%) [1, 6] | Relative activity (%) [1, 7] | Relative activity (%) [2, 8] | Relative activity (%) [2, 9] | Relative activity (%) ([3]; compound 1 mM, none = 100) | Relative activity (%) ([3]; compound 10 mM, none = 100) | also measured
[Cl-].[Cl-].[Co+2] [CoCl2] | 69% | 83% | 26% | 15% | 97% | 86% | Relative activity (%), EDTA reactivation [2]: 91%
O=S(=O)(F)Cc1ccccc1 [Phenylmethyl-sulfonyl fluoride] | 0% | 0% | 44% |  |  |  | Relative activity (%) ([1]; compound 0.01 mM): 17%; Relative activity (%) ([1]; compound 0.1 mM): 4.8%; Relative activity (%) ([3]; compound 0.01 mM): 0%; Relative activity (%) ([3]; compound 0.1 mM): 0%
[Cl][Cd][Cl] [CdCl2] | 85% | 38% | 5% | 0% |  |  | Relative activity (%), EDTA reactivation [2]: 79%
NC(=O)CI [Iodoacetamide] | 87% |  | 96% | 29% | 104% | 67% | activity at 10000 µM [1, 7]: 32%
[Cl-].[Cl-].[Mg+2] [MgCl2] | 90% | 99% | 103% | 93% | 101% | 87% | 
CC(=O)NC(C)c1ccc2ccccc2c1 (racemic) [Substrate 7a] |  |  |  |  |  |  | Selectivity E [4]: 88; e.e. (S)-Amine [4]: 97.4; e.e. (R)-Amide [4]: 16.4
[Cl][V]([Cl])[Cl] [VCl3] | 89% | 94% | 96% | 106% |  |  | 
[Cl][Pb][Cl] [PbCl2] | 95% | 99% | 79% | 9% |  |  | Relative activity (%), EDTA reactivation [2]: 102%
[Cl][Ni][Cl] [NiCl2] | 40% | 10% | 14% | 0% | 87% | 80% | Relative activity (%), EDTA reactivation [2]: 85%
[Cl-].[Cl-].[Zn+2] [ZnCl2] | 68% | 47% | < 1.5% | 0% | 66% | 0% | Relative activity (%), EDTA reactivation [2]: 75%
[Cl][Cu][Cl] [CuCl2] | 88% | 41% | 50% | 0% | 66% | 50% | Relative activity (%), EDTA reactivation [2]: 86%
[Cl][Mn][Cl] [MnCl2] | 87% | 87% | 99% | 60% | 94% | 83% | 
CC(=O)NC1CCc2ccccc21 (racemic) [Substrate 5a] |  |  |  |  |  |  | Selectivity E [5]: 180; e.e. (R)-Amine [5]: 95.7; e.e. (S)-Amide [5]: 96.1; Selectivity E [4]: 65; e.e. (S)-Amine [4]: 88.2; e.e. (R)-Amide [4]: 96.7
CC(=O)NC(C)c1ccc2c(c1)OCO2 (racemic) [Substrate 8a] |  |  |  |  |  |  | Selectivity E [5]: 60; e.e. (R)-Amine [5]: 91.5; e.e. (S)-Amide [5]: 82.4; Selectivity E [4]: 280; e.e. (S)-Amine [4]: 97.8; e.e. (R)-Amide [4]: 90.1
N[C@@H]1CONC1=O [D-cycloserine] |  |  |  |  | 104% | 96% | 
O=C(O)c1cc[c]([Hg+])cc1.[OH-] [p-hydroxy-mercuribenzoate] |  |  |  |  | 89% | 96% | 
O=C(O)CN(CCN(CC(=O)O)CC(=O)O)CC(=O)O [EDTA] |  |  |  |  |  |  | Relative activity (%) ([1]; pH 8): 102; activity at 10000 µM [1]: 104%; Relative activity (%) [2]: 121; Relative activity (%) ([2]; pH 8): 119; Relative activity (%) [3]: 99 and 89
N[C@@H](CCC(=O)N[C@@H](CS)C(=O)NCC(=O)O)C(=O)O [Glutathion, reduced] |  |  |  |  |  |  | Relative activity (%) ([1]; pH 8): 106; activity at 10000 µM [1]: 102%; Relative activity (%) [2]: 112; Relative activity (%) ([2]; pH 8): 113; Relative activity (%) [3]: 104 and 93
[Ba+2].[Cl-].[Cl-] [BaCl2] | 95% | 99% | 92% | 89% |  |  | 
OCCS [Mercaptoethanol] | 104% |  | 115% | 69% | 106% | 101% | activity at 10000 µM [1, 7]: 108%
O[C@H](CS)[C@H](O)CS (racemic) [Dithiothreitol] | 103% |  | 35% | 5.4% | 112% | 77% | activity at 10000 µM [1, 7]: 100%
CC(=O)NC(C)c1cccc(C#N)c1 (racemic) [Substrate 2a] |  |  |  |  |  |  | Selectivity E [5]: 60; e.e. (R)-Amine [5]: 91.5; e.e. (S)-Amide [5]: 82.4; Selectivity E [4]: > 500; e.e. (S)-Amine [4]: > 99.9; e.e. (R)-Amide [4]: 85.5
O=C(O)CC(O)(CC(=O)O)C(=O)O [Citrate] | 106% |  | 122% | 100% | 113% | 133% | activity at 10000 µM [1, 7]: 91%
[Cl][Fe]([Cl])[Cl] [FeCl3] | 101% | 92% | 121% | 132% | 101% | 37% | 
[Ca+2].[Cl-].[Cl-] [CaCl2] | 90% | 83% | 92% | 88% | 89% | 85% | 
CC(=O)NC(C)CCc1ccccc1 (racemic) [Substrate 9a] |  |  |  |  |  |  | Selectivity E [4]: 230; e.e. (S)-Amine [4]: 92.1; e.e. (R)-Amide [4]: > 99.9
CC(=O)NC(C)c1ccc(C#N)cc1 (racemic) [Substrate 3a] |  |  |  |  |  |  | Selectivity E [5]: 320; e.e. (R)-Amine [5]: 95.0; e.e. (S)-Amide [5]: > 99.9; Selectivity E [4]: > 500; e.e. (S)-Amine [4]: > 99.9; e.e. (R)-Amide [4]: 97.4
